Test results from ChEMBL document CHEMBL1128838, “Synthesis of antiparasitic licorice chalcones” (1995).

Columns and labels:
[1] = Evaluated for the PHA (phytohemagglutininin A) induced proliferation of human peripheral lymphocytes at a dose of 10 ug/ml; format: functional
Leishmania major [2] = assay: Antiparasitic activity was estimated by ability to inhibit the in vitro growth of Leishmania major measured by the decreased uptake of [3H]thymidine at 1 ug/mL; format: functional
Leishmania major [3] = assay: Antiparasitic activity was estimated by ability to inhibit the in vitro growth of Leishmania major measured by the decreased uptake of [3H]thymidine at 10 ug/mL; format: functional
Leishmania major [4] = assay: Antiparasitic activity was estimated by ability to inhibit the in vitro growth of Leishmania major measured by the decreased uptake of [3H]thymidine at 5 ug/mL; format: functional
Leishmania major [5] = assay: Antiparasitic activity was estimated by ability to inhibit the in vitro growth of Leishmania major measured by the decreased uptake of [3H]-thymidine at 20 ug/mL; format: functional
[6] = Evaluated for the PHA (phytohemagglutininin A) induced proliferation of human peripheral lymphocytes at a dose of 1 ug/ml; format: functional
[7] = Evaluated for the PHA (phytohemagglutininin A) induced proliferation of human peripheral lymphocytes at a dose of 5 ug/ml; format: functional
[8] = Evaluated for the PHA (phytohemagglutininin A) induced proliferation of human peripheral lymphocytes at a dose of 20 ug/ml; format: functional
Leishmania major [9] = assay: Antiparasitic activity was estimated by ability to inhibit the in vitro growth of Leishmania major measured by the decreased uptake of [3H]thymidine at 25 ug/mL; format: functional
Leishmania donovani [10] = assay: Inhibition of [3H]-thymidine uptake in amastigotes of Leishmania donovani in infected human peripheral blood monocyte derived macrophages at a dose of 10 ug/ml; format: functional
[11] = Evaluated for the PHA (phytohemagglutininin A) induced proliferation of human peripheral lymphocytes at a dose of 50 ug/ml; format: functional
Leishmania major [12] = assay: Antiparasitic activity was estimated by ability to inhibit the in vitro growth of Leishmania major measured by the decreased uptake of [3H]thymidine at 100 ug/mL; format: functional
Leishmania donovani [13] = assay: Inhibition of [3H]thymidine uptake in amastigotes of Leishmania donovani in infected human peripheral blood monocyte derived macrophages at a dose of 0.5 ug/ml; format: functional
[14] = Evaluated for the PHA (phytohemagglutininin A) induced proliferation of human peripheral lymphocytes at a dose of 100 ug/ml; format: functional
Leishmania donovani [15] = assay: Inhibition of [3H]thymidine uptake in amastigotes of Leishmania donovani in infected human peripheral blood monocyte derived macrophages at a dose of 1 ug/ml; format: functional
[16] = Evaluated for the PHA (phytohemagglutininin A) induced proliferation of human peripheral lymphocytes at a dose of 25 ug/ml; format: functional
Leishmania major [17] = assay: Antiparasitic activity was estimated by ability to inhibit the in vitro growth of Leishmania major measured by the decreased uptake of [3H]thymidine at 50 ug/mL; format: functional
Leishmania donovani [18] = assay: Inhibition of [3H]thymidine uptake in amastigotes of Leishmania donovani in infected human peripheral blood monocyte derived macrophages at a dose of 5 ug/ml; format: functional
Leishmania major [19] = assay: Compound was tested for its ability to inhibit the growth of Leishmania major at a dose of 100 ug/ml; format: functional, organism-based
Leishmania major [20] = assay: Compound was tested for its ability to inhibit the growth of Leishmania major at a dose of 10 ug/ml; format: functional, organism-based
Leishmania major [21] = assay: Compound was tested for its ability to inhibit the growth of Leishmania major at a dose of 1 ug/ml; format: functional, organism-based

Compound	inhibition at 10 µg/mL [1]	inhibition at 1 µg/mL (Leishmania major [2])	inhibition at 10 µg/mL (Leishmania major [3])	inhibition at 5 µg/mL (Leishmania major [4])	inhibition at 20 µg/mL (Leishmania major [5])	inhibition at 1 µg/mL [6]	inhibition at 5 µg/mL [7]	inhibition at 20 µg/mL [8]	further results
COc1c(/C=C/C(=O)c2ccc(O)cc2)ccc(O)c1CC=C(C)C	30.4%	3.9%	51.5%	20.7%	93.8%	5.5%	14.8%	73.2%	
C=CC(C)(C)c1cc(/C=C/C(=O)c2ccc(O)cc2)c(OC)cc1O [LICOAGROCHACONE A]	39.7%	3.6%	91.9%	63.9%	96%	4.7%	20.8%	65.3%	
COc1cc(O)ccc1/C=C/C(=O)c1ccc(O)cc1 [ECHINATIN]	9.2%		30%	16.4%			7.8%		inhibition at 25 µg/mL (Leishmania major [9]): 50.3%; inhibition at 10 µg/mL (Leishmania donovani [10]): 94%; inhibition at 50 µg/mL [11]: 18%; inhibition at 100 µg/mL (Leishmania major [12]): 86.8%; inhibition at 0.5 µg/mL (Leishmania donovani [13]): 57%; inhibition at 100 µg/mL [14]: 26.4%; inhibition at 1 µg/mL (Leishmania donovani [15]): 62%; inhibition at 25 µg/mL [16]: 10.4%; inhibition at 50 µg/mL (Leishmania major [17]): 69.3%; inhibition at 5 µg/mL (Leishmania donovani [18]): 92%
Pentostam									inhibition (Leishmania major [19]): 95%; inhibition (Leishmania major [20]): 35%; inhibition (Leishmania major [21]): 18%
